Test system: Jurkat IL-2 Production
Test: Jurkat IL-2 Production Assay
Type: cell-based
Details: Homo sapiens, Jurkat cell (ATCC), 18-20 h incubation, PHA 5 μg/mL with 1% FBS, or PMA/Ionomycin with 30% FBS (table does not say which)
Protocol: Jurkat IL-2 Production Assay
Cell: Jurkat cell (ATCC) was grown in RPMI 1640 with 10% FBS and 1% penicillin/streptomycin. The cell density was kept at 1.2-1.8×10^6/mL in culture flask before seeding into culture plate, and the cell density in the plate was 0.5×10^6/[…]/well.
Culture media: RPMI 1640 with 1% FBS or 30% FBS for high serum assay.
Test compound: serial dilution was done in 100% DMSO, and intermediate dilution was done with RPMI 1640 medium with 1% FBS. The DMSO final concentration in culture well was 0.25%.
Stimulant: PHA (Sigma#L9017-10MG) was used for the assay with 1% FBS in culture medium, and added after 10 minutes exposure of cell to compound/DMSO. The PHA final concentration in culture well was 5 μg/mL. PMA (Sigma# P-8139 5MG)/Ionomycin (Sigma# 10634-5MG) was used for the assay with 30% FBS in culture medium, and added at same time point as the 1% FBS culture assay. The final concentration of PMA was 50 ng/mL, and Ionomycin final concentration was 500 ng/mL.
Incubation: at 37° C. with 5% CO2 and 95% humidity for 18 h˜20 h.
IC50: IC50 was calculated with the data analysis software XLfit4, General Pharmacology model 251.

SMILES	IC50
Cn1nc(C(F)(F)F)cc1-c1ccc2[nH]c(-c3c(F)cccc3F)cc2c1 [Example 1, 2-(2,6-Difluoro-phenyl)-5-(2-methyl-5-trifluoromethyl-2H-pyrazol-3-yl)-1H-indole]	46 nM
COc1ccc2c(c1)nc(C(F)(F)F)n2-c1ccc2[nH]c(-c3c(F)cccc3F)cc2c1 [Example 2, 1-[2-(2,6-Difluoro-phenyl)-1H-indol-5-yl]-5-methoxy-2-trifluoromethyl-1H-benzoimidazole]	830 nM
Cn1nc(C(F)(F)F)cc1-c1ccc2[nH]c(-c3ccc(OC(F)(F)F)cc3)cc2c1 [Example 3, 5-(2-Methyl-5-trifluoromethyl-2H-pyrazol-3-yl)-2-(4-trifluoromethoxy-phenyl)-1H-indole]	954 nM
Cc1sc(-c2ccccn2)nc1-c1ccc2[nH]c(-c3c(F)cccc3F)cc2c1 [Example 4, 2-(2,6-Difluoro-phenyl)-5-(5-methyl-2-pyridin-2-yl-thiazol-4-yl)-1H-indole]	219 nM
Cc1sc(-c2ccccn2)nc1-c1ccc2[nH]c(-c3ccccc3Cl)cc2c1 [Example 5, 2-(2-Chloro-phenyl)-5-(5-methyl-2-pyridin-2-yl-thiazol-4-yl)-1H-indole]	223 nM
Cc1ccccc1-c1cc2cc(-c3nc(-c4ccccn4)sc3C)ccc2[nH]1 [Example 6, 5-(5-Methyl-2-pyridin-2-yl-thiazol-4-yl)-2-o-tolyl-1H-indole]	611 nM
Cc1nc(-c2ccccc2)sc1-c1ccc2[nH]c(-c3ccccc3Cl)cc2c1 [Example 7, 2-(2-Chloro-phenyl)-5-(4-methyl-2-phenyl-thiazol-5-yl)-1H-indole]	800 nM
Cc1ncccc1-c1cc2cc(-c3sc(-c4ccccc4)nc3C)ccc2[nH]1 [Example 8, 5-(4-Methyl-2-phenyl-thiazol-5-yl)-2-(2-methyl-pyridin-3-yl)-1H-indole]	287 nM
Cc1sc(-c2ccccn2)nc1-c1ccc2[nH]c(-c3ccncc3F)cc2c1 [Example 9, 2-(3-Fluoro-pyridin-4-yl)-5-(5-methyl-2-pyridin-2-yl-thiazol-4-yl)-1H-indole]	908 nM
Cc1cnccc1-c1cc2cc(-c3nc(-c4ccccn4)sc3C)ccc2[nH]1 [Example 10, 2-(3-Methyl-pyridin-4-yl)-5-(5-methyl-2-pyridin-2-yl-thiazol-4-yl)-1H-indole]	190 nM
Cc1sc(-c2cccnc2)nc1-c1ccc2[nH]c(-c3ccccc3F)cc2c1 [Example 11, 2-(2-Fluoro-phenyl)-5-(5-methyl-2-pyridin-3-yl-thiazol-4-yl)-1H-indole]	169 nM
Cc1sc(-c2cccnc2)nc1-c1ccc2[nH]c(-c3ccccc3Cl)cc2c1 [Example 12, 2-(2-Chloro-phenyl)-5-(5-methyl-2-pyridin-3-yl-thiazol-4-yl)-1H-indole]	86 nM
Cc1sc(-c2cccnc2)nc1-c1ccc2[nH]c(-c3c(F)cccc3F)cc2c1 [Example 13, 2-(2,6-Difluoro-phenyl)-5-(5-methyl-2-pyridin-3-yl-thiazol-4-yl)-1H-indole]	66 nM
Cn1nc(C(F)(F)F)cc1-c1ccc2[nH]c(-c3ccccc3F)cc2c1 [Example 14, 2-(2-Fluoro-phenyl)-5-(2-methyl-5-trifluoromethyl-2H-pyrazol-3-yl)-1H-indole]	337 nM
CCn1nc(-c2ccccc2)cc1-c1ccc2[nH]c(-c3c(F)cccc3F)cc2c1 [Example 15, 2-(2,6-difluoro-phenyl)-5-(2-ethyl-5-phenyl-2H-pyrazol-3-yl)-1H-indole]	468 nM

Now from value to molecule:

IC50	SMILES
211 nM	CCn1nc(-c2ccccn2)cc1-c1ccc2[nH]c(-c3c(F)cccc3F)cc2c1 [Example 16, 2-(2,6-Difluoro-phenyl)-5-(2-ethyl-5-pyridin-2-yl-2H-pyrazol-3-yl)-1H-indole]
57 nM	Cn1nc(-c2ccncc2)cc1-c1ccc2[nH]c(-c3c(F)cccc3F)cc2c1 [Example 17, 2-(2,6-Difluoro-phenyl)-5-(2-methyl-5-pyridin-4-yl-2H-pyrazol-3-yl)-1H-indole]
102 nM	CCn1nc(-c2ccncc2)cc1-c1ccc2[nH]c(-c3c(F)cccc3F)cc2c1 [Example 18, 2-(2,6-Difluoro-phenyl)-5-(2-ethyl-5-pyridin-4-yl-2H-pyrazol-3-yl)-1H-indole]
198 nM	Cn1nc(-c2cccnc2)cc1-c1ccc2[nH]c(-c3c(F)cccc3F)cc2c1 [Example 19, 2-(2,6-Difluoro-phenyl)-5-(2-methyl-5-pyridin-3-yl-2H-pyrazol-3-yl)-1H-indole]
101 nM	CCn1nc(-c2cccnc2)cc1-c1ccc2[nH]c(-c3c(F)cccc3F)cc2c1 [Example 20, 2-(2,6-Difluoro-phenyl)-5-(2-ethyl-5-pyridin-3-yl-2H-pyrazol-3-yl)-1H-indole]
90 nM	Cc1sc(-c2ccncc2)nc1-c1ccc2[nH]c(-c3c(F)cccc3F)cc2c1 [Example 21, 2-(2,6-Difluoro-phenyl)-5-(5-methyl-2-pyridin-4-yl-thiazol-4-yl)-1H-indole]
150 nM	Cc1sc(-c2ccncc2)nc1-c1ccc2[nH]c(-c3ccccc3Cl)cc2c1 [Example 22, 2-(2-Chloro-phenyl)-5-(5-methyl-2-pyridin-4-yl-thiazol-4-yl)-1H-indole]
210 nM	Cc1ccc(-c2ncco2)cc1-c1ccc2[nH]c(-c3c(F)cccc3F)cc2c1 [Example 23, 2-(2,6-Difluoro-phenyl)-5-(2-methyl-5-oxazol-2-yl-phenyl)-1H-indole]
427 nM	Fc1cccc(F)c1-c1cc2cc(-c3cccc(-c4ncco4)c3)ccc2[nH]1 [Example 24, 2-(2,6-Difluoro-phenyl)-5-(3-oxazol-2-yl-phenyl)-1H-indole]
224 nM	Cc1ccc(-c2nccs2)cc1-c1ccc2[nH]c(-c3c(F)cccc3F)cc2c1 [Example 25, 2-(2,6-Difluoro-phenyl)-5-(2-methyl-5-thiazol-2-yl-phenyl)-1H-indole]
639 nM	COc1ccc(OC)c(-c2ccc3[nH]c(-c4c(F)cccc4F)cc3c2)c1 [Example 26, 2-(2,6-Difluoro-phenyl)-5-(2,5-dimethoxy-phenyl)-1H-indole]
97 nM	Cc1cc(C#N)ccc1-c1ccc2[nH]c(-c3c(F)cccc3F)cc2c1 [Example 27, 4-[2-(2,6-Difluoro-phenyl)-1H-indol-5-yl]-3-methyl-benzonitrile]
123 nM	COc1ccc(-c2ccc3[nH]c(-c4c(F)cccc4F)cc3c2)c(C)c1 [Example 28, 2-(2,6-Difluoro-phenyl)-5-(4-methoxy-2-methyl-phenyl)-1H-indole]
168 nM	Cc1ccc(-c2ccc3[nH]c(-c4c(F)cccc4F)cc3c2)c(C)c1 [Example 29, 2-(2,6-Difluoro-phenyl)-5-(2,4-dimethyl-phenyl)-1H-indole]
85 nM	COC(=O)c1ccc(-c2ccc3[nH]c(-c4c(F)cccc4F)cc3c2)c(C)c1 [Example 30]
174 nM	Cc1cc(Cl)ccc1-c1ccc2[nH]c(-c3c(F)cccc3F)cc2c1 [Example 31, 5-(4-Chloro-2-methyl-phenyl)-2-(2,6-difluoro-phenyl)-1H-indole]
71 nM	Cc1cc(C(F)(F)F)ccc1-c1ccc2[nH]c(-c3c(F)cccc3F)cc2c1 [Example 32, 2-(2,6-Difluoro-phenyl)-5-(2-methyl-4-trifluoromethyl-phenyl)-1H-indole]

Source: US20110071150A1 (priority 2009, published 2011)
